Tests used:
HEI-OC1 cells [1] = test: Release of mitochondrial cyt c in HEI-OC1 cells with CisPt (flow cytometry); type: cell-based; settings: HEI-OC1 cells; after CisPt alone or pre-incubated with LPT99
Description: Flow cytometry was also used to characterize the effect of LPT99 in the release of mitochondrial cyt c in HEI-OC1 cells in vitro with CisPt prevention. Results
The effect of LPT99 on proliferation of non-apoptotic cells was studied. A549 cells were cultured in the presence of LPT99 for up to 6 days; the cell number was monitored by flow cytometry, and doubling time was calculated.

HEI-OC1 cells [2] = test: HEI-OC1 cell viability with CisPt; type: cell-based; settings: CisPt 0 to 5 μg/mL
[3] = GLP auditory safety study in rats after single TT administration
Description: The study consisted of 10 groups of rats: 6 groups for toxicology (Groups 1 to 6, 20 males and 20 females per group), and 4 groups for toxicokinetics (Groups 7 to 10, 6 males and 6 females per group).
All animals were assessed weekly for body weights and qualitative food consumption. In addition, otoscopic evaluation of the dosing sites (tympanic membrane, Groups 1 to 6) and ABR testing for hearing function were performed at predosing; and on Days 1, 7, and/or 14. Animals in the toxicology groups (Groups 1 to 6) were sacrificed on Day 1 (10 males and 10 females per group) and Day 14 (the remaining 10 males and 10 females per group). At necropsy, terminal blood samples were tested for hematology, serum chemistry, and coagulation parameters. Gross observations were recorded, and selected organs were weighed. One ear per animal in Groups 1 to 5 was collected and processed for cytocochleogram assessment.

| Compound | release of mitochondrial cyt c (HEI-OC1 cells [1]) | HEI-OC1 cell viability IC50 of CisPt (HEI-OC1 cells [2]) | weight-normalized heart weights ([3]; Day 14, males, 400 mg/mL gentamicin vs saline controls, p≥0.05) | otoscopic scores (erythema, edema, wounds) of tympanic membranes ([3]; Days 1, 7, 14 vs control) |
| --- | --- | --- | --- | --- |
| N.N.[Cl][Pt][Cl] [CisPt, cisplatin, reference compound] | 28% ±6.6% | 4.47 ± 1.94 µg/mL | – | – |
| gentamicin [reference compound] | – | – | increased weight-normalized heart weights | increases in otoscopic scores |

From patent publication US20220062166A1, “Self-Gelling Solutions for Administration of Therapeutics to the Inner Ear” (Spiral Therapeutics, Inc., priority 2019, published 2022)
